We go through 11 molecules from ChEMBL document CHEMBL1201862, “PubChem BioAssay data set” (2004).

SMILES strings stand for the structures.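 Five compound concentrations were applied to cells in 96-well plates for 48 hours; endpoints were derived by simple linear interpolation of the resulting dose-response curve. Here, GI50 denotes the concentration required for 50% inhibition of growth.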 Calls of active or inactive are those of the source. Rule as the data show it: active = GI50 up to about 1.1 µM and inactive = higher.

Test systems include CAKI-1; HCC 2998; HCT-15; IGROV-1; KM12; MDA-N; Malme-3M; NCI-H23; OVCAR-3; OVCAR-4; OVCAR-5; SF-295; SK-MEL-28; SN12C; SW-620; T47D; U-251; UO-31; EKVX; NCI-H226.
Assay in all cases: NCI tumour cell line growth inhibition, 48 h

Consider `[N-]=[N+]=NC1=C(c2ccccn2)C(=O)c2cccc3cccc1c23`, for which the GI50 in the experiment with CAKI-1 was 26.7 µM (inactive); with HCC 2998, 57.5 µM (inactive); with HCT-15, 29 µM; in the experiment with IGROV-1, 14.8 µM (inactive); in the experiment with KM12, 25.4 µM (inactive); in the experiment with MDA-N, 53.8 µM (inactive). The GI50 in the experiment on Malme-3M is 49.2 µM (inactive); in the experiment on NCI-H23 it was 19.2 µM (inactive); with OVCAR-3 it was 27.7 µM (inactive); in the experiment on OVCAR-4, 31.1 µM (inactive); in the experiment with OVCAR-5, 79.6 µM (inactive); in the experiment on SF-295 it was 42.5 µM (inactive). Moreover, the GI50 is > 100 µM (inactive) in the experiment with SK-MEL-28; 20.8 µM (inactive) with SN12C; 22.9 µM (inactive) with SW-620; > 100 µM (inactive) with T47D; 29.2 µM (inactive) in the experiment with U-251; 7.48 µM (inactive) in the experiment with UO-31.
Turning to `C[C@H](CO)C1=CC(C#C[Si](C)(C)C)N(C(=O)Oc2ccccc2)c2ccccc21` (stereo partly specified), the GI50 in the experiment with CAKI-1 was 14.1 µM (inactive); in the experiment with EKVX, 13.3 µM (inactive); with HCC 2998, 10.6 µM (inactive); with HCT-15 it was 3.06 µM; with IGROV-1, 12.4 µM (inactive); in the experiment with KM12, 4.93 µM (inactive). Besides, the GI50 was 3.58 µM (inactive) with MDA-N; 15.7 µM (inactive) in the experiment on NCI-H226; 4.29 µM (inactive) in the experiment with NCI-H23; 3.93 µM (inactive) with OVCAR-3; 7.1 µM (inactive) in the experiment with OVCAR-4; 15 µM (inactive) in the experiment on OVCAR-5. The GI50 is 3.86 µM (inactive) in the experiment on SF-295; 16.6 µM (inactive) in the experiment on SK-MEL-28; 12 µM (inactive) with SN12C; 12.4 µM (inactive) in the experiment with SW-620; 15.9 µM (inactive) in the experiment with T47D; 14.6 µM (inactive) in the experiment on U-251. Also, the GI50 in the experiment on UO-31 is 9.27 µM (inactive).
Take `CC(C)(C)/C(O)=C\c1nc2cc(C(F)(F)F)ccc2[nH]c1=O`: the GI50 is > 100 µM (inactive) with CAKI-1; > 100 µM (inactive) with EKVX; more than 100 µM with HCT-15; > 100 µM (inactive) in the experiment with IGROV-1; > 100 µM (inactive) in the experiment on KM12; > 100 µM (inactive) with MDA-N. Besides, the GI50 in the experiment with Malme-3M, with NCI-H226, with NCI-H23, in the experiment on OVCAR-3, with OVCAR-4 and with OVCAR-5 was > 100 µM (inactive) in each case. The GI50 with SF-295, with SK-MEL-28, with SN12C, with SW-620, in the experiment with T47D and in the experiment on U-251 was > 100 µM (inactive) each time. Also, the GI50 with UO-31 was > 100 µM (inactive).
For `O=C(OCc1ccccc1)N1c2cc([N+](=O)[O-])ccc2C(=O)N2CCC[C@H]2C1O` (stereo partly specified), the GI50 in the experiment with CAKI-1 was > 100 µM (inactive); with EKVX it was > 100 µM (inactive); in the experiment with HCC 2998 it was > 100 µM (inactive); with HCT-15, more than 100 µM; with IGROV-1 it was > 100 µM (inactive); with KM12 it was > 100 µM (inactive). Further, the GI50 in the experiment with MDA-N, in the experiment on NCI-H226, in the experiment on NCI-H23, in the experiment on OVCAR-3, with OVCAR-4 and in the experiment with OVCAR-5 was > 100 µM (inactive) each time. Besides, the GI50 with SF-295, with SK-MEL-28, in the experiment with SN12C, in the experiment on SW-620, in the experiment with T47D and in the experiment with U-251 was > 100 µM (inactive) in each case. Also, the GI50 in the experiment on UO-31 is > 100 µM (inactive).
Consider `Nc1nc2c(ncn2CC2CCC(CO)C2)c(=O)[nH]1` (stereo unspecified), for which the GI50 in the experiment with CAKI-1 is > 100 µM (inactive); with EKVX, > 100 µM (inactive); with HCC 2998 it was > 100 µM (inactive); in the experiment on HCT-15, more than 100 µM; in the experiment with KM12, > 100 µM (inactive); in the experiment with MDA-N it was > 100 µM (inactive). The GI50 in the experiment on NCI-H226, in the experiment on OVCAR-3, in the experiment with OVCAR-4, in the experiment with OVCAR-5, in the experiment on SF-295 and with SK-MEL-28 was > 100 µM (inactive) in each case. In addition, the GI50 in the experiment with SN12C, in the experiment on SW-620, in the experiment with T47D, in the experiment with U-251 and in the experiment on UO-31 was > 100 µM (inactive) in each case.
With `COC1=C(OC)C(=O)C(C/C=C/c2c(Cl)nc3sccn23)=C(C)C1=O`, the GI50 is 12.2 µM (inactive) in the experiment with CAKI-1; 11.2 µM (inactive) in the experiment with EKVX; 18.2 µM (inactive) in the experiment with HCC 2998; 26.5 µM in the experiment on HCT-15; 17.4 µM (inactive) in the experiment with IGROV-1; 17.5 µM (inactive) in the experiment on KM12. For the same molecule, the GI50 in the experiment on MDA-N was 6.38 µM (inactive); in the experiment on Malme-3M, 3.75 µM (inactive); with NCI-H23 it was 0.518 µM (active); in the experiment with OVCAR-3, 13.7 µM (inactive); with OVCAR-4, 0.398 µM (active); with OVCAR-5, 16.9 µM (inactive). Also, the GI50 is 2.1 µM (inactive) with SF-295; 17.9 µM (inactive) with SK-MEL-28; 16.6 µM (inactive) with SN12C; 21.3 µM (inactive) with SW-620; 7.74 µM (inactive) in the experiment with T47D; 5.87 µM (inactive) with U-251. In the experiment with UO-31, the GI50 was 18.7 µM (inactive).
As for `CC(C)=c1sc(=C(C)C)c2c1=NC(C)(C)N=2`, the GI50 was 77.1 µM (inactive) with CAKI-1; 57.9 µM (inactive) with EKVX; 27.5 µM (inactive) with HCC 2998; 47.8 µM in the experiment on HCT-15; 42.1 µM (inactive) in the experiment on IGROV-1; 78.9 µM (inactive) with KM12. The GI50 with MDA-N is 65.6 µM (inactive); in the experiment with Malme-3M it was > 100 µM (inactive); with NCI-H23, 53.7 µM (inactive); in the experiment on OVCAR-3, 72.6 µM (inactive); in the experiment on OVCAR-4 it was > 100 µM (inactive); with OVCAR-5, 36.5 µM (inactive). In addition, the GI50 in the experiment on SF-295 is 75.5 µM (inactive); in the experiment with SK-MEL-28 it was 73.6 µM (inactive); in the experiment with SN12C, 58.5 µM (inactive); in the experiment with SW-620, 72.6 µM (inactive); in the experiment on T47D, 52.8 µM (inactive); in the experiment on U-251, 46 µM (inactive).
Turning to `Cc1nc2c(sc3nc4c(cc32)CCC4)c(=O)o1`, the GI50 is > 100 µM (inactive) in the experiment on CAKI-1; > 100 µM (inactive) in the experiment on EKVX; 28.6 µM (inactive) in the experiment on HCC 2998; 34.4 µM in the experiment with HCT-15; 20.6 µM (inactive) in the experiment with IGROV-1; > 87.1 µM (inactive) in the experiment on KM12. Further, the GI50 is 38.7 µM (inactive) with MDA-N; > 96.2 µM (inactive) in the experiment with NCI-H226; 67.9 µM (inactive) with NCI-H23; 37.8 µM (inactive) with OVCAR-3; 32.4 µM (inactive) in the experiment on OVCAR-4; > 95.1 µM (inactive) in the experiment with OVCAR-5. Also, the GI50 in the experiment with SF-295 was > 100 µM (inactive); with SK-MEL-28, 46.7 µM (inactive); in the experiment with SN12C, 98.2 µM (inactive); in the experiment on SW-620, > 59.7 µM (inactive); in the experiment with T47D it was > 78 µM (inactive); in the experiment with U-251, > 83.2 µM (inactive). Further, in the experiment with UO-31, the GI50 is > 56.1 µM (inactive).
`CC(=O)Nc1ccc(C(=O)NN2C(=O)CSC2c2ccccc2)cc1` (stereo unspecified): the GI50 is > 100 µM (inactive) in the experiment on EKVX; > 100 µM (inactive) in the experiment on HCC 2998; more than 100 µM in the experiment on HCT-15; > 100 µM (inactive) with IGROV-1; > 100 µM (inactive) with KM12; > 100 µM (inactive) in the experiment with MDA-N. Besides, the GI50 in the experiment on NCI-H226, with NCI-H23, in the experiment on OVCAR-3, in the experiment with OVCAR-4, with OVCAR-5 and in the experiment with SF-295 was > 100 µM (inactive) throughout. The GI50 in the experiment with SK-MEL-28, in the experiment with SN12C, with SW-620, with T47D, with U-251 and in the experiment with UO-31 was > 100 µM (inactive) each time.
Take `CCOP(=O)(C[S+](C)[O-])O[C@@H]1C[C@H](C)CC[C@H]1C(C)C` (stereo partly specified): the GI50 with CAKI-1 was 2.88 µM (inactive); with EKVX it was 3.33 µM (inactive); with HCT-15, 2.71 µM; with IGROV-1 it was 3.25 µM (inactive); with KM12, 3.14 µM (inactive); in the experiment with MDA-N it was 2.86 µM (inactive). The GI50 in the experiment with Malme-3M is 11 µM (inactive); with NCI-H226, 3.92 µM (inactive); in the experiment on NCI-H23, 4.13 µM (inactive); in the experiment with OVCAR-3, 4.44 µM (inactive); with OVCAR-4 it was 15 µM (inactive); in the experiment with OVCAR-5 it was 4.28 µM (inactive). The GI50 with SF-295 was 5.6 µM (inactive); in the experiment on SK-MEL-28 it was > 100 µM (inactive); in the experiment on SN12C, 0.434 µM (active); in the experiment with SW-620, 3.72 µM (inactive); with T47D it was 4.6 µM (inactive); in the experiment on U-251, 4.59 µM (inactive). For the same molecule, the GI50 in the experiment with UO-31 was 1.17 µM (inactive).
With `CC1OC(=O)C(C(C)C)NC(=O)C(C(C)C)OC(=O)C(C(C)C)NC(=O)C(C)OC(=O)C(C(C)C)NC(=O)C(C(C)C)OC(=O)C(C(C)C)NC(=O)C(C)OC(=O)C(C(C)C)NC(=O)C(C(C)C)OC(=O)C(C(C)C)NC1=O` (stereo unspecified), the GI50 with CAKI-1 is 0.00288 µM (active); in the experiment on EKVX, 0.0198 µM (active); in the experiment with HCC 2998 it was 0.00256 µM (active); with HCT-15, 0.0034 µM; in the experiment on IGROV-1 it was 0.00275 µM (active); in the experiment on KM12 it was 0.00272 µM (active). Moreover, the GI50 in the experiment with MDA-N is < 0.0001 µM (active); with Malme-3M, 0.0025 µM (active); in the experiment with NCI-H23, 0.0025 µM (active); with OVCAR-3, 0.0025 µM (active); in the experiment with SK-MEL-28, 0.0025 µM (active); in the experiment with SN12C it was 0.00273 µM (active). Also, the GI50 in the experiment with SW-620 was 0.0025 µM (active); in the experiment on T47D, < 0.0001 µM (active); in the experiment on U-251, 0.0025 µM (active); with UO-31 it was 0.00281 µM (active).
